From ChEMBL document CHEMBL3507680, “University of Dundee, Gates Library screen for HepG2 cell viability”

Assay: Human HepG2 cell viability assay in 384 well format
Assay type: toxicity, cell-based
Set-up: dose 125 nL, time 70.5 hour; cytotoxicity at 70.5 h: concentration not given beside the values
Details: HepG2 cells, read-out: Inhibition

| SMILES | cytotoxicity at 70.5 h [%] |
| --- | --- |
| CCOc1cc(CNC(C)c2ccc(F)cc2)ccn1 (stereo not given) | 26.8 |
| CCN(C(=O)C1Cc2cc(Cl)ccc2O1)C1CC1 (stereo not given) | -2.35 |
| CS(=O)(=O)N1CCN(CC(=O)Nc2cccc(Cl)c2)CC1 | 5.96 |
| CC(C)(NC(=O)c1cnc(-c2ccccc2F)s1)C(N)=O | -10.3 |
| CN(Cc1cccc(F)c1)S(=O)(=O)N1CCOCC1 | -3.2 |
| O=C(NCc1cc[nH]n1)NC1CCCN(c2ncccn2)C1 (stereo not given) | -6.39 |
| O=C(NCc1ccoc1)NC1CCCN(c2ncccn2)C1 (stereo not given) | -4.3 |
| O=C(NCc1ccc(F)cc1)N1CCC(C2OCCO2)CC1 | -10 |
| COCCn1ccc2cc(NC(C)=O)ccc21 | -5.43 |
| CN(Cc1nccn1CC(F)(F)F)C(=O)c1ccc(F)c(F)c1 | -1.82 |
| COc1cccc2c1OCC(NC(=O)NCc1cccs1)C2 (stereo not given) | -0.177 |
| CCc1nccn1C1CCCN(C(=O)c2cnc3ccccc3n2)C1 (stereo not given) | -2.77 |
| CCc1nccn1C1CCCN(C(=O)c2ccc3[nH]cnc3c2)C1 (stereo not given) | -5.72 |
| CC(O)CN1CCN(C(=O)c2cc3ccccc3[nH]c2=O)CC1 (stereo not given) | -11 |
| CC(NC(=O)NCC1(O)CCC1)c1ccc(OCC2CC2)c(F)c1 (stereo not given) | -12 |
| Cc1ccc(CCC(=O)N(C)CCN2CCOCC2)c(C)c1 | -0.456 |
| CCc1csc(C2CCCN(C(=O)c3cnn(CC)c3)C2)n1 (stereo not given) | 6.03 |
| Cc1cccc(NC(=O)c2sccc2C)n1 | 36.7 |
| O=C(C1CC1)N1CCC2(CC1)OCCO2 | -6.55 |
| COCCNC(=O)c1ccc(C)c(-n2cccc2)c1 | -2.8 |

| SMILES | cytotoxicity at 70.5 h [%] |
| --- | --- |
| CS(=O)(=O)NCCCNC(=O)c1cccc(-n2cccc2)c1 | -1.21 |
| CC(=O)N1CCN(CCNS(=O)(=O)c2ccc(C)c(F)c2)CC1 | 28.3 |
| O=C(CN1CCCC(O)C1)NC(=O)NCc1cccs1 (stereo not given) | -8.04 |
| O=C(CCNC(=O)c1ccccc1)Nc1ccncc1 | -18 |
| Cn1cc(NC(=O)Cn2c(CS(C)(=O)=O)nc3ccccc32)cn1 | -6.35 |
| O=C(NCCCNC(=O)c1cccc(O)c1)NCc1ccccc1F | -9.83 |
| Cc1nc(C2(NCC(=O)NC(=O)NCc3cccs3)CCCCC2)no1 | -12.5 |
| Cc1ccc(C(=O)N(C)Cc2cc(Br)cs2)c(=O)[nH]1 | -11.5 |
| Cc1ccc(C(=O)N(C)Cc2cscn2)c(=O)[nH]1 | -12.9 |
| CCc1ccc(C(=O)N2CCC(c3nncn3CC)CC2)cc1 | 33.4 |
| Cc1nn(C)c2sc(C(=O)N3CCCC(n4ccnc4C)C3)cc12 (stereo not given) | -7.74 |
| Cc1ccc(CC2CCCN2CC(=O)NCc2cccnc2)cc1 (stereo not given) | -15.4 |
| Cn1cc(CC2CCN(C(=O)NCCc3cccc(O)c3)C2)cn1 (stereo not given) | -12.6 |
| CCCN1CCN(C(=O)c2scnc2C)CC1 | -3.56 |
| Cn1cc(CC2CCN(C(=O)NCc3cn4ccsc4n3)C2)cn1 (stereo not given) | 23.7 |
| O=C(C1CCC1)N1CCC2(CC1)OCCO2 | -7.76 |
| Cc1ccccc1C1(CNC(=O)NCCc2nnc3n2CCC3)CC1 | -17.5 |
| Cc1nn(C)c(C)c1C(=O)N1CCOCC1CC(=O)c1ccco1 (stereo not given) | -18.7 |
| COCCOCC(=O)Nc1ccc(C)cc1F | -7.66 |
| CCn1cnnc1C1CCN(C(=O)c2cnc3ccccc3n2)CC1 | -16.4 |

| SMILES | cytotoxicity at 70.5 h [%] |
| --- | --- |
| CN(CCc1cccs1)C1CCCN(Cc2noc(C3CC3)n2)C1 (stereo not given) | 8.79 |
| CC(C)c1nnc2n1CC(CNCc1ccncc1)CC2 (stereo not given) | -3.85 |
| CN(Cc1cnn(C)c1)C(=O)NC1CCS(=O)(=O)C1 (stereo not given) | -6.09 |
| c1cc(C2CCCN2Cc2nnnn2C2CC2)cs1 (stereo not given) | -8.27 |
| Cn1cc(CCNC(=O)NC2CCS(=O)(=O)C2)cn1 (stereo not given) | -1.53 |
| CNC(=O)CCNC(=O)c1cccc(Cn2nc(C)cc2C)c1 | -3.48 |
| Cc1nn(C)c(N2CCOCC2)c1CNC(C)c1cccnc1 (stereo not given) | -8.78 |
| Cc1ncc(CNC(=O)Nc2cc(C(F)(F)F)c[nH]c2=O)s1 | 0.0851 |
| CN(C)S(=O)(=O)N1CCC(Oc2ccc(C#N)cc2)CC1 | -4.56 |
| Cc1cc(C)n(Cc2ccc(C(=O)NCCN3CCOCC3)cc2)n1 | 1.27 |
| CCc1nnc2n1CCN(C(=O)c1cnc3ccccc3n1)C2 | -4.54 |
| CC(CN1CCN(C)CC1)NC(=O)c1cc(Cl)c2c(c1)OCO2 (stereo not given) | -0.705 |
| CCc1nnc2n1CCN(C(=O)c1ccc3nc(C)c(C)nc3c1)C2 | 1.25 |
| CCc1nnc2n1CCN(C(=O)c1ccc3[nH]cnc3c1)C2 | 4.85 |
| COc1ccc(OC)c(CNCCc2cc(F)cc3c2OCOC3)c1 | 9.35 |
| O=C(CCc1cscn1)NS(=O)(=O)c1ccc2ccccc2c1 | -5.17 |
| c1cc2c(cc1C1CCCN1Cc1nnnn1C1CC1)OCCO2 (stereo not given) | 13.7 |
| CC(C)c1n[nH]c(C2CN(C(=O)CCCn3cccn3)CCO2)n1 (stereo not given) | -3.52 |
| CN(Cc1cnn(C)c1)C(=O)NC1CCC(O)CC1 (stereo not given) | -7.28 |
| Cc1nn(C)c(Cl)c1CNCc1cccnc1N1CCOCC1 | 0.768 |
